Details: n = 8
Protocol: All patients received 140 mg bimiralisib (PQR309) orally once daily on 2 consecutive days followed by 5 days without treatment weekly until unacceptable toxicity, tumor progression, patient request for withdrawal, investigator judgment, or death.
Radiologic tumor assessments were performed using computed tomography at baseline and every 6 weeks. Safety was continuously monitored.

Nc1cc(C(F)(F)F)c(-c2nc(N3CCOCC3)nc(N3CCOCC3)n2)cn1 [Bimiralisib, 5-(4,6-dimorpholino-1,3,5-triazin-2-yl)-4-(trifluoromethyl)pyridin-2-amine]
6: General disorders and administration site conditions, Grade 1, total number of events
0 n (%): Hemorrhage, Grade 1, patients | Hemorrhage, Grade 2, patients | Hyperglycemia, Grade 2, patients | Hypocalcemia, Grade 1, patients | Hypocalcemia, Grade 3/4, patients | Hypotension, Grade 2, patients | Hypotension, Grade 3/4, patients | Injury, poisoning and procedural complications, Grade 2, patients | Injury, poisoning and procedural complications, Grade 3/4, patients | Investigations, Grade 2, patients | Laryngeal stenosis, Grade 1, patients | Laryngeal stenosis, Grade 2, patients | Musculoskeletal and connective tissue disorders, Grade 2, patients | Musculoskeletal and connective tissue disorders, Grade 3/4, patients | Nausea, Grade 3/4, patients | Neck pain, Grade 2, patients | Neck pain, Grade 3/4, patients | Nervous system disorders, Grade 3/4, patients | Osteomyelitis acute, Grade 1, patients | Osteomyelitis acute, Grade 2, patients | Pain in jaw, Grade 2, patients | Pain in jaw, Grade 3/4, patients | Platelet count decreased, Grade 2, patients | Platelet count decreased, Grade 3/4, patients | Pneumonia aspiration, Grade 1, patients | Pneumonia aspiration, Grade 2, patients
2 (25.0) n (%): Hyperglycemia, Grade 3/4, patients | Metabolism and nutrition disorders, Grade 2, patients | Metabolism and nutrition disorders, Grade 3/4, patients | Nausea, Grade 2, patients
0: Hemorrhage, Grade 1, total number of events | Hemorrhage, Grade 2, total number of events | Hyperglycemia, Grade 2, total number of events | Hypocalcemia, Grade 1, total number of events | Hypocalcemia, Grade 3/4, total number of events | Hypotension, Grade 2, total number of events | Hypotension, Grade 3/4, total number of events | Injury, poisoning and procedural complications, Grade 2, total number of events | Injury, poisoning and procedural complications, Grade 3/4, total number of events | Investigations, Grade 2, total number of events | Laryngeal stenosis, Grade 1, total number of events | Laryngeal stenosis, Grade 2, total number of events | Musculoskeletal and connective tissue disorders, Grade 2, total number of events | Musculoskeletal and connective tissue disorders, Grade 3/4, total number of events | Nausea, Grade 3/4, total number of events | Neck pain, Grade 2, total number of events | Neck pain, Grade 3/4, total number of events | Nervous system disorders, Grade 3/4, total number of events | Osteomyelitis acute, Grade 1, total number of events | Osteomyelitis acute, Grade 2, total number of events | Pain in jaw, Grade 2, total number of events | Pain in jaw, Grade 3/4, total number of events | Platelet count decreased, Grade 2, total number of events | Platelet count decreased, Grade 3/4, total number of events | Pneumonia aspiration, Grade 1, total number of events
1: General disorders and administration site conditions, Grade 2, total number of events | General disorders and administration site conditions, Grade 3/4, total number of events | Hemorrhage, Grade 3/4, total number of events | Hyperglycemia, Grade 1, total number of events | Hypocalcemia, Grade 2, total number of events | Hypotension, Grade 1, total number of events | Injury, poisoning and procedural complications, Grade 1, total number of events | Laryngeal stenosis, Grade 3/4, total number of events | Metabolism and nutrition disorders, Grade 1, total number of events | Nausea, Grade 1, total number of events | Neck pain, Grade 1, total number of events | Nervous system disorders, Grade 2, total number of events | Osteomyelitis acute, Grade 3/4, total number of events | Pain in jaw, Grade 1, total number of events | Platelet count decreased, Grade 1, total number of events
3: Investigations, Grade 1, total number of events | Metabolism and nutrition disorders, Grade 2, total number of events
1 (12.5) n (%): General disorders and administration site conditions, Grade 2, patients | General disorders and administration site conditions, Grade 3/4, patients | Hemorrhage, Grade 3/4, patients | Hyperglycemia, Grade 1, patients | Hypocalcemia, Grade 2, patients | Hypotension, Grade 1, patients | Injury, poisoning and procedural complications, Grade 1, patients | Investigations, Grade 3/4, patients | Laryngeal stenosis, Grade 3/4, patients | Metabolism and nutrition disorders, Grade 1, patients | Musculoskeletal and connective tissue disorders, Grade 1, patients | Nausea, Grade 1, patients | Neck pain, Grade 1, patients | Nervous system disorders, Grade 1, patients | Nervous system disorders, Grade 2, patients | Osteomyelitis acute, Grade 3/4, patients | Pain in jaw, Grade 1, patients | Platelet count decreased, Grade 1, patients
2: Hyperglycemia, Grade 3/4, total number of events | Investigations, Grade 3/4, total number of events | Metabolism and nutrition disorders, Grade 3/4, total number of events | Musculoskeletal and connective tissue disorders, Grade 1, total number of events | Nausea, Grade 2, total number of events | Nervous system disorders, Grade 1, total number of events
3 (37.5) n (%): Infections and infestations, Grade 3/4, patients | Investigations, Grade 1, patients

Reference: publication PMC9732253, “Inhibition of the Phosphatidylinositol-3 Kinase Pathway Using Bimiralisib in Loss-of-Function NOTCH1-Mutant Head and Neck Cancer” (The Oncologist, 2022)
